# Target: Tau aggregates in P301L-Tau-FL-GFP HEK293 cells (Homo sapiens (Human), UniProt P10636, P301L)
# Assay: Tau degradation assay (APNmAb005 ELISA-based Tau aggregation assay)
# Assay type: cell-based
# Conditions: 1 μM compound
# Description: (A). Cell-based model of Tau inclusion formation: Six month old rTg4510 mouse brain lysates were used as the source of tau seeds, prepared as described in Example 26 above. P301L-Tau-FL-GFP HEK293 cells represent HEK293 cells express full-length human tau T40 (2N4R) carrying the P301L mutation with a GFP tag (P301L-Tau-FL-GFP). 1×10^6 of P301L-Tau-FL-GFP HEK293 cells were cultured on a 6-well plate in culture medium containing DMEM/F-12 (Gibco) supplemented with 10% fetal bovine serum (FBS) (Gibco), 1% Penicillin-Streptomycin (Gibco) and 0.5 mg/ml geneticin (Thermo Fisher Scientific) for 24 hours to reach 70-90% confluency, indicating the cells were ready for transfection. 50 μg of 6-month-old rTg4510 mouse brain lysate was diluted in 400 μL of serum free medium and mixed with 16 μL of lipofectamine 3000 reagent (Thermo Fisher Scientific) diluted in 400 μl of serum free medium. A solution mixture of rTg4510 brain lysate and lipofectamine 3000 was incubated at room temperature for 25 mins. The culture media were removed, and then a solution mixture of rTg4510 lysate and lipofectamine 3000 was added to the cells for transfection. The solution mixture was incubated at room temperature for five hours, followed by medium change to 10% fetal bovine serum (FBS). […]
# Tau aggregates in P301L-Tau-FL-GFP HEK293 cells, sequence (P10636 other isoform, or with tags, fused parts or gaps P301L): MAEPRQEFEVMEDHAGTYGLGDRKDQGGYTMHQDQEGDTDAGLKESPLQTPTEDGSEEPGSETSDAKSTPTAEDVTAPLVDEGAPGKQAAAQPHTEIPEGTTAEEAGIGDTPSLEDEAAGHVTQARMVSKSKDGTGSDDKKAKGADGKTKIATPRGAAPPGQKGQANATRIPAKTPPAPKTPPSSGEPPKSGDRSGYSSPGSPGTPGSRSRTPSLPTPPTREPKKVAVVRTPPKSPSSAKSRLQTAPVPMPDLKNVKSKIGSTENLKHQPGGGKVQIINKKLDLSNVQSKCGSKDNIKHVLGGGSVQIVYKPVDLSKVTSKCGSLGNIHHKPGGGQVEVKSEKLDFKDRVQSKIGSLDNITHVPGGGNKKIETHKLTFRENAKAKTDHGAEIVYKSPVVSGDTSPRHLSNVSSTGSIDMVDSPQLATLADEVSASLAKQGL
compound,measurement,value
CN(C)c1ccc(-c2ccc(-c3cn4cccc(OCCOCCOc5ccc6c(c5)CN(C5CCC(=O)NC5=O)C6=O)c4n3)cc2)cn1 (stereo not shown) [Compound 162842],Optical Density (O.D.) 450 value decrease compared to vehicle,20%

# Source: patent US11642413B2, “Compounds for degrading Tau protein aggregates and uses thereof” (Aprinoia Therapeutics Limited, priority 2019, dated 2023)
